Experiments:
Type in all cases: in vivo
[1] = test system: rats subjected to FPI (TBI model); assay: T2-weighted MRI brain swelling (edema) 72 hours after TBI (rat FPI)
Procedure: (§1) Craniotomy and lateral fluid percussion injury (FPI) were performed using a previously validated and published procedure. Farias S, et al. J. Neurotraum, 26, 1977-1986, 2009; Frey L. C. et al. J. Neurosci. Methods 177, 267-272, 2009. Throughout the specification animals subjected to this protocol are referred to as having a TBI since this treatment protocol is a TBI model. Briefly, rats were anesthetized with 3-5% isoflurane, isosol, VEDCO Inc., St. Joseph, Mo., via nose cone and mounted in a stereotaxic head frame. A 3 millimeter (mm) craniotomy was created and centered at 3 mm caudal to bregma and 3.5 mm left of the sagittal suture, keeping the exposed dura intact. One steel support screw was embedded in the skull on the contralateral side. […] Moistened food pellets were provided after injury, and all animals were monitored daily for well-being and weight changes. […]
For each rat, five slices, 1.2 mm thick, spanning the entire area of injury were used to calculate FPI-related brain swelling. The diameter of the injured, ipsilateral hemisphere was measured from midline to the widest point of the cortex (Fiji/ImageJ, NIH). The difference between the ipsilateral (ipsi) and contralateral (contra) hemisphere diameters was then calculated and normalized to the diameter of the contralateral hemisphere using the formula: {(diameter Ipsi−diameter Contra)/diameter Contra}×100 […]

[2] = test system: rats subjected to FPI (TBI model); assay: Gd-enhanced T1-weighted MRI, BBB disruption 72 hours after TBI (rat FPI)
Procedure: Craniotomy and lateral fluid percussion injury (FPI) were performed using a previously validated and published procedure. Farias S, et al. J. Neurotraum, 26, 1977-1986, 2009; Frey L. C. et al. J. Neurosci. Methods 177, 267-272, 2009. Throughout the specification animals subjected to this protocol are referred to as having a TBI since this treatment protocol is a TBI model. Briefly, rats were anesthetized with 3-5% isoflurane, isosol, VEDCO Inc., St. Joseph, Mo., via nose cone and mounted in a stereotaxic head frame. A 3 millimeter (mm) craniotomy was created and centered at 3 mm caudal to bregma and 3.5 mm left of the sagittal suture, keeping the exposed dura intact. One steel support screw was embedded in the skull on the contralateral side. A Luer-Lock hub with an inside diameter of 3.5 mm was centered over the craniotomy and bonded to the skull with cyanoacrylate adhesive and capped. Dental acrylic, Snap, Parka, Inc., Edgewood, N.J., was poured around the huh and screw. After the acrylic hardened antibiotic ointment was applied around the cap and the animals were returned to their cages. The next day, approximately 15-20 hours later, animals were anesthetized with isoflurane in an induction chamber, immediately connected to the FPI apparatus, and received a 20 millisecond (ms) pulse of pressurized sterile saline at 2.7 atmospheres (atm) of pressure to simulate a moderate severity impact on the intact dural surface through the craniotomy before awakening from anesthesia. […] All animals received a subcutaneous injection of the analgesic, buprenorphine, 0.05 milligram/kilogram (mg/kg) Buprenex, prior to craniotomy, and subsequent injections every 12 hours for two days. Moistened food pellets were provided after injury, and all animals were monitored daily for well-being and weight changes. […]
The effect of leukotrienes on TBI-related BBB disruption was assessed using Gd-enhanced T1-weighted MRI 72 hours after TBI in rats. […]

[3] = test system: rats subjected to FPI (TBI model); assay: Evans Blue extravasation, BBB permeability in hippocampus (rat FPI); settings: 15 minutes after TBI; slices five hours post-injury
Procedure: as §1, with “intact.” for “intact. One steel support screw was embedded in the skull on the contralateral side.”
One hour prior to FPI, rats received a 5 ml intraperitoneal (IP) injection of Evans Blue (EB) solution, 2% w/v in saline. […] Images from each slice were stitched together using Fiji/ImageJ (NIH), and EB-positive cells in the hippocampal cell layers were quantified using the cell counter tool.
The inventors utilized Evans Blue (EB) fluorescence to assess BBB permeability in the rat FPI model. […] Fluorescence microscopy was used to image brain slices harvested five hours post-injury, taking advantage of EB's intrinsic fluorescent properties, excitation at 620 nm and emission at 680 nm. […]

How did the normalized brain swelling ([1]; 30 minutes pre-TBI) turn out when `CC(C)c1ccc2c(c1)c(SC(C)(C)C)c(CC(C)(C)C(=O)O)n2Cc1ccc(Cl)cc1` [MK-886, 1-[(4-Chlorophenyl)methyl]-3-[(1,1-dimethylethyl)thio]-α,α-dimethyl-5-(1-methylethyl)-1H-Indole-2-propanoic acid] was run?
The normalized brain swelling was 4.12+/−0.08%.

And the normalized brain swelling ([1]; 60 minutes post-TBI)?
Its normalized brain swelling is 8.98+/−1.0%.

What about the Gd extravasation ([2]; 15 min post-injury) of the same molecule?
Its Gd extravasation is “no effect”.

And the Gd extravasation ([2]; 30 min pre-injury)?
Its Gd extravasation is “no effect”.

And the Gd extravasation ([2]; 60 min post-injury)?
The Gd extravasation was “no effect”.

And the “number of EB-positive cells in the CA1 region” value [3]?
Its value is 69.25+/−36.82.

— patent publication US10080748B2, “Use of flap inhibitors to reduce neuroinflammation mediated injury in the central nervous system” (Bioscience Pharma Partners, LLC, priority 2014, dated 2018)
